Reference: patent publication US20220289794A1, “SYNTHETIC ANTIMICROBIAL PEPTIDES” (priority 2019, published 2022)
≈ marks a conversion by molar mass, not a printed value. Read-outs that look alike come from different tables or passages of the source.

Tests used:
E. coli = conditions: Table 37; peptides and peptide-capped gold nanoparticles
[1] = system: Escherichia coli (E. Coli, ATCC 25922); conditions: antibiotics alone and PHY-MIX (1:1 w/w)
[2] = system: Pseudomonas aeruginosa (PSA, ATCC 27883); conditions: antibiotics alone and PHY-MIX (1:1 w/w)
[3] = system: Klebsiella pneumoniae (KPC, ATCC BAA-1705); conditions: Klebsiella pneumoniae (ATCC BAA-1705); antibiotic alone
[4] = system: Methicillin-resistant Staphylococcus aureus MRSA (ATCC BAA-1556); experiment: microbe, parasite or virus in culture; conditions: read-out: MIC MRSA (ATCC BAA-1556)
[5] = system: Klebsiella pneumoniae (ATCC BAA-1705); experiment: microbe, parasite or virus in culture
[6] = system: Staphylococcus aureus ATCC 33592 (MRSA) biofilm; experiment: microbe, parasite or virus in culture; conditions: read-out: inhibition of biofilm formation
Experimental: (§1) Bacteria. The bacterial strains employed in these assays were obtained from the American Type Culture Collection (ATCC). Each strain was propagated as recommended by the ATCC and each strain was stored as a frozen glycerol stock at −80° C.
(§2) Bacterial Propagation. […] Following the incubation, the culture was diluted to an optical density 625 nm (OD625) of 0.1 in cation adjusted Mueller Hinton Broth (CAMHB), which is equivalent to 1×10^8 CFU/mL. The culture was further diluted to 1×10^6 CFU/mL which was used for the assay.
(§3) Determination of the Temporal Effects of SPL7013 Addition to Inhibit Biofilm Formation. Each strain of bacteria was adjusted to a concentration of 1×10^6 CFU/mL and added to a 96-well flat-bottomed plate in a volume of 100 mL. One-hundred microliters (100 mL) of each compound at 10 concentrations was added in triplicate wells. The cultures were incubated for 24 hours at 37° C. under the appropriate growth conditions for each organism. Following the incubation, the media was removed, and the formed biofilms were fixed for 1 hour at 60° C. Two-hundred microliters (200 mL) of 0.06% crystal violet was added to the wells for 5 to 10 minutes and the wells were then gently washed three times with deionized H2O to remove the crystal violet. Following crystal violet staining 200 mL of 70% ethanol was added to the wells.

[7] = system: Escherichia coli (E. Coli, ATCC 25922); experiment: microbe, parasite or virus in culture; conditions: ATCC25922, 24 h, read-out: Escherichia coli (ATCC 25922) MIC
PSA = conditions: Table 37; peptides and peptide-capped gold nanoparticles
[8] = system: Klebsiella pneumoniae (KPC, ATCC BAA-1705); experiment: microbe, parasite or virus in culture; conditions: ATCCBAA1705, 24 h
[9] = system: Pseudomonas aeruginosa (PSA, ATCC 27883); experiment: Synergy checkerboard assay (FIC index); assay type: cell-based; conditions: ATCC27883, 24 h; Table 25; Pseudomonas aeruginosa (ATCC 27883); antibiotic alone
[10] = system: Klebsiella pneumoniae (KPC, ATCC BAA-1705); experiment: microbe, parasite or virus in culture; conditions: ATCCBAA1705, 24 h, read-out: MIC of antibiotic
KPC = conditions: Table 37; peptides and peptide-capped gold nanoparticles
[11] = system: Staphylococcus aureus ATCC 33592 (MRSA) biofilm; conditions: all other concentrations ([…] to 0.001 μg/mL)
Experimental: as §1, §2, §3

[12] = system: Clostridium difficile (NAP1/027); experiment: MIC determination, broth microdilution (CLSI); assay type: cell-based
[13] = system: Pseudomonas aeruginosa (ATCC 27883); experiment: microbe, parasite or virus in culture
MRSA = experiment: microbe, parasite or virus in culture; conditions: Staphylococcus aureus, ATCCBAA1556 / MRSA, read-out: MIC MRSA (ATCC BAA-1556)
[14] = system: Escherichia coli (ATCC 25922); experiment: microbe, parasite or virus in culture
[15] = system: Pseudomonas aeruginosa (PSA, ATCC 27883); experiment: microbe, parasite or virus in culture; conditions: ATCC27883, 24 h, read-out: Pseudomonas aeruginosa (ATCC 27883) MIC
[16] = system: Clostridium difficile (ATCC 700057); experiment: MIC determination, broth microdilution (CLSI); assay type: cell-based

Question: Which “MIC Escherichia coli (ATCC 25922)” value (E. coli) does the source give for `CN[C@H](CC(C)C)C(=O)N[C@H]1C(=O)N[C@@H](CC(N)=O)C(=O)N[C@H]2C(=O)N[C@H]3C(=O)N[C@H](C(=O)N[C@H](C(=O)O)c4cc(O)cc(O)c4-c4cc3ccc4O)[C@H](O)c3ccc(c(Cl)c3)Oc3cc2cc(c3O[C@@H]2O[C@H](CO)[C@@H](O)[C@H](O)[C@H]2O[C@H]2C[C@](C)(N)[C@H](O)[C@H](C)O2)Oc2ccc(cc2Cl)[C@H]1O` [Vancomycin, reference compound] here?
Answer: Its value is “No effect”.

Question: What about the “Escherichia coli (ATCC 25922) MIC” value ([1]; Table 29, [R6W4] (IFX-318)) of the same compound?
Answer: Its value is greater than 64 µg/mL.

Question: What about the “Escherichia coli (ATCC 25922) MIC” value ([1]; Table 30, [R5W4K] (IFX-315)) of the same compound?
Answer: The value was greater than 64 µg/mL.

Question: And the “Escherichia coli (ATCC 25922) MIC” value ([1]; Table 31, [R5W4] (IFX-301))?
Answer: Its value is greater than 64 µg/mL.

Question: What about the “Pseudomonas aeruginosa (ATCC 27883) MIC” value ([2]; Table 29, [R6W4] (IFX-318)) of the same compound?
Answer: Its value is greater than 64 µg/mL.

Question: And the “Pseudomonas aeruginosa (ATCC 27883) MIC” value ([2]; Table 30, [R5W4K] (IFX-315))?
Answer: The value was greater than 64 µg/mL.

Question: And the “Pseudomonas aeruginosa (ATCC 27883) MIC” value ([2]; Table 31, [R5W4] (IFX-301))?
Answer: Its value is greater than 64 µg/mL.

Question: And the MIC of antibiotic [3]?
Answer: The MIC of antibiotic was greater than 256 µg/mL.

Question: And the MIC [4]?
Answer: Its MIC is 0.5 µg/mL (≈ 0.345 µM).

Question: What about the MIC ([5]; ATCCBAA1705, read-out: KPC (ATCC BAA-1705) MIC) of the same compound?
Answer: The MIC was greater than 512 µg/mL.

Question: What about the MIC ([5]; ATCCBAA1705, read-out: MIC K. pneumoniae (ATCC BAA-1705)) of the same compound?
Answer: Its MIC is greater than 256 µg/mL.

Question: And the inhibition at 5000 µg/mL [6]?
Answer: Its inhibition at 5000 µg/mL is roughly 97%.

Question: And the MIC [7]?
Answer: The MIC was greater than 64 µg/mL.

Question: What about the “MIC Pseudomonas aeruginosa (ATCC 27883)” value (PSA) of the same compound?
Answer: Its value is “No effect”.

Question: What about the MIC ([8]; read-out: Klebsiella pneumoniae (ATCC BAA-1705) MIC, Table 28, IFX-031, antibiotics alone and PHY-MIX (1:1 w/w)) of the same compound?
Answer: The MIC was greater than 256 µg/mL.

Question: What about the MIC ([8]; read-out: Klebsiella pneumoniae (ATCC BAA-1705) MIC, Table 29, [R6W4] (IFX-318), antibiotics alone and PHY-MIX (1:1 w/w)) of the same compound?
Answer: Its MIC is greater than 256 µg/mL.

Question: And the MIC ([8]; read-out: Klebsiella pneumoniae (ATCC BAA-1705) MIC, Table 30, [R5W4K] (IFX-315), antibiotics alone and PHY-MIX (1:1 w/w))?
Answer: Its MIC is greater than 256 µg/mL.

Question: What about the MIC ([8]; read-out: Klebsiella pneumoniae (ATCC BAA-1705) MIC, Table 31, [R5W4] (IFX-301), antibiotics alone and PHY-MIX (1:1 w/w)) of the same compound?
Answer: The MIC was greater than 64 µg/mL.

Question: And the MIC [9]?
Answer: The MIC was greater than 256 µg/mL.

Question: What about the MIC [10] of the same compound?
Answer: The MIC was greater than 256 µg/mL.

Question: What about the “MIC Klebsiella pneumoniae (ATCC BAA-1705)” value (KPC) of the same compound?
Answer: The value was “No effect”.

Question: What about the “inhibition of biofilm formation” value [11] of the same compound?
Answer: Its value is “approximately 50%”.

Question: What about the MIC90 [12] of the same compound?
Answer: Its MIC90 is 0.31 µg/mL (≈ 0.214 µM).

Question: And the MIC95 [12]?
Answer: The MIC95 was 0.31 µg/mL (≈ 0.214 µM).

Question: What about the MIC99 [12] of the same compound?
Answer: Its MIC99 is 0.31 µg/mL (≈ 0.214 µM).

Question: And the MIC ([13]; ATCC27883, read-out: MIC P. aeruginosa ATCC 27883)?
Answer: The MIC was greater than 256 µg/mL.

Question: And the MIC ([13]; ATCC27883, read-out: PSA (ATCC 27883 MIC))?
Answer: The MIC was greater than 512 µg/mL.

Question: What about the MIC (MRSA) of the same compound?
Answer: Its MIC is 0.5 µg/mL (≈ 0.345 µM).

Question: And the MIC ([14]; ATCC25922, read-out: E. coli (ATCC 25922) MIC)?
Answer: Its MIC is greater than 512 µg/mL.

Question: What about the MIC ([14]; ATCC25922, read-out: MIC E. coli (ATCC 25922)) of the same compound?
Answer: Its MIC is greater than 256 µg/mL.

Question: And the MIC [15]?
Answer: The MIC was greater than 64 µg/mL.

Question: What about the MIC90 [16] of the same compound?
Answer: Its MIC90 is 0.63 µg/mL (≈ 0.435 µM).

Question: And the MIC95 [16]?
Answer: The MIC95 was 0.63 µg/mL (≈ 0.435 µM).

Question: And the MIC99 [16]?
Answer: The MIC99 was 0.63 µg/mL (≈ 0.435 µM).
